Laboratory results published in ChEMBL document CHEMBL1151352, “Antifeedant Diterpenes For the Gypsy Moth Larvae From Kalmia latifolia: Isolation and Characterization of Ten Grayanoids” (1980).

What was measured:
Assay type in all cases: functional
Lymantria dispar [1] = experiment: Antifeedant activity in gypsy moth ten third-instar larvae at 20 ug/ml relative to control
Lymantria dispar [2] = experiment: Antifeedant activity in gypsy moth ten third-instar larvae at 15 ug/ml relative to control
Lymantria dispar [3] = experiment: Antifeedant activity in gypsy moth ten third-instar larvae at 32.5 ug/ml relative to control
Lymantria dispar [4] = experiment: Antifeedant activity in gypsy moth ten third-instar larvae at 27 ug/ml relative to control
Lymantria dispar [5] = experiment: Antifeedant activity in gypsy moth ten third-instar larvae at 17.5 ug/ml relative to control
Lymantria dispar [6] = experiment: Antifeedant activity in gypsy moth ten third-instar larvae at 60 ug/ml relative to control
Lymantria dispar [7] = experiment: Antifeedant activity in gypsy moth ten third-instar larvae at 45 ug/ml relative to control
Lymantria dispar [8] = experiment: Antifeedant activity in gypsy moth ten third-instar larvae at 2.5 ug/ml relative to control
Lymantria dispar [9] = experiment: Antifeedant activity in gypsy moth ten third-instar larvae at 30 ug/ml relative to control
Lymantria dispar [10] = experiment: Antifeedant activity in gypsy moth ten third-instar larvae at 7.5 ug/ml relative to control

## C=C1[C@@H]2CC[C@@H]3C[C@@]2(C[C@@H](O)[C@@]2(O)[C@H]1C[C@H](O)C2(C)C)C[C@@]3(C)O
Lymantria dispar [1]
  Activity: 121%

## C=C1[C@@H]2CC[C@@H]3[C@@H](O)[C@@]2(C[C@@H](O)[C@@]2(O)[C@H]1C[C@H](O)C2(C)C)C[C@@]3(C)O
Lymantria dispar [2]
  Activity: 65%

## CC1(C)[C@@H](O)C[C@H]2[C@](C)(O)[C@@H]3CC[C@@H]4[C@@H](O)[C@@]3(C[C@@H](O)[C@@]21O)C[C@@]4(C)O [GRAYANOTOXIN III]
Lymantria dispar [3]
  Activity: 49%

## CC(=O)O[C@@H]1[C@@H](O)[C@]23C[C@@](C)(O)[C@H](CC[C@H]2[C@@](C)(O)[C@@H]2C[C@H](O)C(C)(C)[C@@]12O)[C@H]3O [KALMITOXIN III]
Lymantria dispar [4]
  Activity: 99%

## C=C1[C@@H]2CC[C@@H]3[C@@H](O)[C@]2(C[C@@]3(C)O)[C@H](O)[C@@H](O)[C@@]2(O)[C@H]1C[C@H](O)C2(C)C [KALMITOXIN II]
Lymantria dispar [5]
  Activity: 86%

## CC1(C)[C@@H](O)C[C@H]2[C@](C)(O)[C@@H]3CC[C@@H]4[C@@H](O)[C@]3(C[C@@]4(C)O)[C@H](O)[C@@H](O)[C@@]21O [KALMITOXIN I]
Lymantria dispar [6]
  Activity: 23%

## CC(=O)O[C@@H]1[C@@H](O)[C@@]2(O)[C@@H]([C@@H](O)[C@H](O)C2(C)C)[C@](C)(O)[C@@H]2CC[C@@H]3[C@@H](OC(C)=O)[C@]12C[C@@]3(C)O [KALMITOXIN VI]
Lymantria dispar [7]
  Activity: 106%

## CC(=O)O[C@@H]1[C@@H](OC(C)=O)[C@@]2(O)[C@@H]([C@@H]3O[C@@H]3C2(C)C)[C@](C)(O)[C@@H]2CC[C@@H]3[C@@H](O)[C@]12C[C@@]3(C)O [KALMITOXIN V]
Lymantria dispar [8]
  Activity: 92%

## CC(=O)O[C@@H]1[C@@H](O)[C@]23C[C@@](C)(O)[C@H](CC[C@H]2[C@@](C)(O)[C@@H]2[C@@H]4O[C@@H]4C(C)(C)[C@@]12O)[C@H]3O [KALMOTOXIN IV]
Lymantria dispar [9]
  Activity: 47%

## CC(=O)O[C@@H]1[C@@H](O)[C@@]23C[C@@H](CC[C@H]2[C@@](C)(O)[C@@H]2[C@@H]4O[C@@H]4C(C)(C)[C@@]12O)[C@](C)(O)C3 [LYONIOL A]
Lymantria dispar [10]
  Activity: 95%
